This passage reports GI50 and TGI results from PubChem BioAssay (NCI).

Molecules are shown by their SMILES.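 The compound was tested at five concentrations on cells cultured in 96-well plates, with a 48-hour exposure period. Here, GI50 denotes the concentration required for 50% inhibition of growth. TGI marks complete inhibition of growth.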

Among the test systems are RPMI-8226 leukemia; MDA-MB-435; OVCAR-8 ovarian; HT29 colon; SK-OV-3 ovarian; RXF 393 renal; UO-31 renal; SN12C renal; HCC-2998 colon; MCF7 breast.
Test in all cases: NCI-60 cell line screen, 48 h

As to `CCN1CCN(CC(=O)Nc2nc3ccc(NCc4ccc(Cl)cc4)cc3s2)CC1`, the GI50 in the test with RPMI-8226 leukemia was 1.6 µM; with MDA-MB-435 it was 1.9 µM; in the test with OVCAR-8 ovarian it was 4.59 µM; in the test on HT29 colon it was 2.02 µM; in the test with SK-OV-3 ovarian, 2.95 µM; with RXF 393 renal, 1.54 µM. Also, the GI50 with UO-31 renal was 1.62 µM; in the test on SN12C renal, 2.94 µM. The TGI with RPMI-8226 leukemia was 4.04 µM; in the test on MDA-MB-435, 3.81 µM; in the test with OVCAR-8 ovarian, over 100 µM; in the test on HT29 colon, 4.61 µM; in the test on SK-OV-3 ovarian, 7.98 µM; in the test on RXF 393 renal, 3.05 µM. Moreover, the results for the TGI in the test on UO-31 renal and in the test with SN12C renal were 3.19 µM and 11.9 µM, respectively.
Consider `NNC(=O)CCC(=O)Nc1cc(Cl)c(Cl)cc1Cl`, for which the TGI with RPMI-8226 leukemia, in the test with OVCAR-8 ovarian, with HT29 colon, with SK-OV-3 ovarian, with RXF 393 renal and in the test on HCC-2998 colon was over 100 µM in each case. The TGI in the test on UO-31 renal and in the test with SN12C renal was over 100 µM in each case.
In the case of `CC(=O)NCCSC(=O)c1ccccc1`, the TGI with RPMI-8226 leukemia is 2.26 µM; in the test on MDA-MB-435 it was 0.371 µM; with OVCAR-8 ovarian, 0.81 µM; with HT29 colon it was over 78.2 µM; in the test with SK-OV-3 ovarian it was 14.8 µM; in the test on RXF 393 renal, 0.958 µM. For the same compound, in the test with SN12C renal, the TGI amounted to 0.492 µM.
As for `C[C@H]1[C@H](C)CC[C@]2(C(=O)N3CCN(C)CC3)CC[C@]3(C)C(=CC[C@@H]4[C@@]5(C)C/C(=C/c6cccnc6)C(=O)C(C)(C)[C@@H]5CC[C@]43C)[C@H]12`, the GI50 was 1.49 µM with RPMI-8226 leukemia; 1.13 µM in the test on MDA-MB-435; 0.926 µM in the test with HT29 colon; 1.71 µM in the test with SK-OV-3 ovarian; 1.24 µM in the test with RXF 393 renal; 1.28 µM in the test with HCC-2998 colon. In addition, the figures for the GI50 in the test on UO-31 renal and with SN12C renal were 0.775 µM and 1.15 µM, respectively. Further, the TGI with RPMI-8226 leukemia is 4.15 µM; with MDA-MB-435, 2.49 µM; in the test with HT29 colon, 2.67 µM; in the test on SK-OV-3 ovarian, 3.22 µM; with RXF 393 renal, 2.55 µM; in the test on HCC-2998 colon it was 2.67 µM. Moreover, the TGI in the test with UO-31 renal worked out at 2.16 µM; in the test on SN12C renal it was 2.65 µM.
`COCC1N=C(c2cc(OC)c(OC)c(OC)c2-c2cc3c(cc2C2OCCCO2)OCO3)O[C@H]1c1ccccc1` (stereo not given in full): the TGI in the test with RPMI-8226 leukemia, in the test with OVCAR-8 ovarian, in the test on HT29 colon, in the test with SK-OV-3 ovarian, in the test on RXF 393 renal and in the test with HCC-2998 colon was over 100 µM each time. In addition, the TGI with UO-31 renal and with SN12C renal was over 100 µM in each case.
`O=C(O)CCSCCCN1C(=O)c2ccccc2C1=O`: the TGI in the test on RPMI-8226 leukemia, with OVCAR-8 ovarian, in the test on HT29 colon, in the test with SK-OV-3 ovarian, in the test with RXF 393 renal and with HCC-2998 colon was over 100 µM throughout. Also, the TGI in the test on UO-31 renal and with SN12C renal was over 100 µM in each case.
Regarding `CCc1ccccc1N1CCN(C(=O)c2cc(OC)c(OC)c(OC)c2)CC1`, the TGI with RPMI-8226 leukemia is 23.1 µM; with MDA-MB-435 it was under 0.0113 µM; in the test with OVCAR-8 ovarian, 13.6 µM; with HT29 colon, 0.617 µM; with MCF7 breast, 35 µM; in the test with SK-OV-3 ovarian, 4.55 µM. Moreover, the TGI in the test with HCC-2998 colon was 2.09 µM; in the test on UO-31 renal it was 63.4 µM; in the test on SN12C renal, over 100 µM.
In the case of `O=C1CC(c2ccc3c(c2)OCO3)Nc2cc3c(cc21)OCO3` (stereo not given), the GI50 in the test on OVCAR-8 ovarian is 0.84 µM; with HT29 colon, 0.374 µM; with MCF7 breast, 0.364 µM; in the test with SK-OV-3 ovarian, 0.485 µM; in the test with RXF 393 renal it was 0.343 µM; with HCC-2998 colon, 0.694 µM. Further, the GI50 in the test with UO-31 renal is 0.767 µM; in the test with SN12C renal it was 0.788 µM. Also, the TGI with OVCAR-8 ovarian was over 100 µM; in the test with HT29 colon it was 22.3 µM; in the test on MCF7 breast, over 100 µM; with SK-OV-3 ovarian it was 44.2 µM; with RXF 393 renal it was 4.44 µM; with HCC-2998 colon, 11 µM. The TGI in the test with UO-31 renal and in the test on SN12C renal was over 100 µM each time.
Turning to `COC(=O)C1C2C=CC(C2)C1(C(=O)OC)S(=O)CC12CCC(CC1O)C2(C)C` (stereo not given), the TGI in the test with RPMI-8226 leukemia, in the test on OVCAR-8 ovarian, in the test with HT29 colon, with SK-OV-3 ovarian, in the test on RXF 393 renal and in the test with HCC-2998 colon was over 100 µM each time. Also, the TGI in the test on UO-31 renal and with SN12C renal was over 100 µM in each case.
In the case of `Cc1ccc(S(=O)(=O)NNC(=O)c2sc(-c3nc(C)c(C(=O)NNS(=O)(=O)c4ccc(C)cc4)s3)nc2C)cc1`, the TGI in the test with RPMI-8226 leukemia, in the test with OVCAR-8 ovarian, with HT29 colon, in the test on SK-OV-3 ovarian, with RXF 393 renal and with HCC-2998 colon was over 100 µM each time. For the same compound, the TGI in the test with UO-31 renal was 99.7 µM; with SN12C renal, over 100 µM.
Consider `N#Cc1cccc(C(=O)Nc2cccc(NC(=O)c3cccc(C#N)c3)c2)c1`, for which the GI50 with RPMI-8226 leukemia is 52 µM; in the test on MDA-MB-435, over 100 µM; in the test with OVCAR-8 ovarian, 47.3 µM; in the test on HT29 colon, over 100 µM; in the test with MCF7 breast, 90.9 µM; with SK-OV-3 ovarian, over 100 µM. Further, the GI50 in the test with HCC-2998 colon was over 100 µM; with UO-31 renal, over 100 µM; in the test with SN12C renal it was 34.1 µM. Also, the TGI in the test with RPMI-8226 leukemia, in the test on MDA-MB-435, in the test with OVCAR-8 ovarian, in the test with HT29 colon, in the test on MCF7 breast and in the test on SK-OV-3 ovarian was over 100 µM in each case. Further, the TGI in the test on HCC-2998 colon, with UO-31 renal and in the test on SN12C renal was over 100 µM in each case.
As to `CC1CC(c2cccc3c2OCO3)=Nc2ccccc2S1` (stereo not given), the TGI in the test with RPMI-8226 leukemia, in the test with OVCAR-8 ovarian, with HT29 colon, in the test with SK-OV-3 ovarian, in the test with RXF 393 renal and in the test on HCC-2998 colon was over 100 µM each time. Besides, the TGI with UO-31 renal and with SN12C renal was over 100 µM each time.
